Reference: ChEMBL document CHEMBL4414582, “Lathyrane, Premyrsinane, and Related Diterpenes from Euphorbia boetica: Effect on in Vitro Neural Progenitor Cell Proliferation” (J Nat Prod, 2019)
Calls of active or inactive are those of the source. The calls are words filed in the database; no cut-off is given here.

What was measured:
[1] = species on record: Mus musculus; assay: Activation of PKC in mouse neurospheres derived neural precursor cells assessed as increase in cell proliferation by measuring increase in neurosphere size at 5 to 10 uM after 72 hrs in presence of EGF and bFGF by phase contrast microscopic based analysis
[2] = Effect on self-renewal capacity in mouse neurospheres derived neural precursor cells assessed as neurosphere number at 1 to 10 uM after 72 hrs in presence of EGF by phase contrast microscopic based analysis; format: ADME
[3] = Effect on cell viability in mouse neurospheres derived neural precursor cells assessed as neurosphere number at 1 to 10 uM after 72 hrs in presence of bFGF by phase contrast microscopic based analysis
[4] = species on record: Mus musculus; assay: Activation of PKC in mouse neurospheres derived neural precursor cells assessed as cell proliferation by measuring neurosphere size at 1 to 10 uM after 72 hrs in presence of bFGF by phase contrast microscopic based analysis
[5] = Effect on self renewal capacity in mouse neurospheres derived neural precursor cells assessed as neurosphere number at 1 to 10 uM after 72 hrs in presence of EGF and bFGF by phase contrast microscopic based analysis; format: ADME
[6] = Effect on cell viability in mouse neurospheres derived neural precursor cells assessed as neurosphere number at 1 to 10 uM after 72 hrs in presence of EGF by phase contrast microscopic based analysis
[7] = species on record: Mus musculus; assay: Activation of PKC in mouse neurospheres derived neural precursor cells assessed as cell proliferation by measuring neurosphere size at 1 to 10 uM after 72 hrs in presence of EGF by phase contrast microscopic based analysis
[8] = Effect on self-renewal capacity in mouse neurospheres derived neural precursor cells assessed as neurosphere number at 1 to 10 uM after 72 hrs in presence of bFGF by phase contrast microscopic based analysis; format: ADME
[9] = species on record: Mus musculus; assay: Activation of PKC in mouse neurospheres derived neural precursor cells assessed as increase in cell proliferation by measuring increase in neurosphere size after 72 hrs in presence of EGF and bFGF by phase contrast microscopic based analysis
[10] = Effect on cell viability in mouse neurospheres derived neural precursor cells assessed as neurosphere number at 1 to 10 uM after 72 hrs in presence of bFGF and EGF by phase contrast microscopic based analysis
[11] = species on record: Mus musculus; assay: Activation of PKC in mouse neurospheres derived neural precursor cells assessed as cell proliferation by measuring neurosphere size at 1 uM after 72 hrs in presence of EGF and bFGF by phase contrast microscopic based analysis
[12] = species on record: Mus musculus; assay: Activation of PKC in mouse neurospheres derived neural precursor cells assessed as increase in cell proliferation by measuring increase in neurosphere area at 5 uM after 72 hrs in presence of EGF and bFGF by phase contrast microscopic based analysis

Row | Structure (SMILES) | Activity [1] | Activity [2] | Activity [3] | Activity [4] | Activity [5] | Activity [6] | Activity [7] | Activity [8] | Activity [9] | Activity [10] | Activity [11] | Activity [12]
1 | CC(=O)O[C@@H]1[C@@H]2[C@@H](OC(C)=O)[C@]3(CC[C@H]4[C@@H](/C=C(\C)C(=O)[C@@]2(OC(C)=O)C[C@@H]1C)C4(C)C)CO3 | Active | Non-Toxic | Non-Toxic | inactive | Non-Toxic | Non-Toxic | inactive | Non-Toxic | Dose-dependent effect | Non-Toxic | inactive | –
2 | C=C1CC[C@H]2[C@@H](/C=C(\C)C(=O)[C@@]3(OC(C)=O)C[C@H](C)[C@H](OC(C)=O)[C@@H]3[C@H]1OC(C)=O)C2(C)C | – | Non-Toxic | Non-Toxic | – | Non-Toxic | Non-Toxic | – | Non-Toxic | – | Non-Toxic | – | Active
